Experimental findings from US20120059032A1, “1,2,3,4-TETRAHYDROISOQUINOLINE DERIVATIVES EFFECTIVE AS ANTIGLIOMA AGENTS, METHODS OF MAKING, AND THEIR USE” (University of Tennessee Research Foundation, priority 2009, published 2012) are described below.

Counter-ions that a name gives are not always drawn. Like-named read-outs stand apart in the source and are kept apart here.

Data set [1] relates to primary cultures of normal rat astrocytes. The data set is described as follows: Screening and dose response assay (percent survival, 4 days, cresyl violet) on astrocytes. In kind it is cell-based. The settings on record: Table 1. An excerpt: (§1) Screening and Dose Response Assays. […]-1-(2′-methoxybiphenyl-4-ylmethyl)-3,4-dihydro-1H-isoquinoline-2-carboxylic acid tert-butyl ester (7a; EDL-355) was synthesized as described herein in the laboratory of Dr. Duane D. Miller at The University of Tennessee Health Science Center. Briefly, the primary cultures of astrocytes and cultures of C6 glioma cell lines were handled identically with respect to treatment concentrations and manipulations of cells for the screening assays. The cells were trypsinized and transferred to 96-well plates at a cell density of 10^3 cells/mm^2 in the wells. The cells were grown overnight in 100 μL of 10% FCS BME in a 37° C. incubator containing a humid, 5% CO2 atmosphere.
(§2) EDL-355 was dissolved completely to make a 100 μM stock solution and diluted to produce a series of concentrations.
(§3) A 20 μL aliquot of these initial solutions was added to 180 μl of 2% FCS BME to produce the test concentration. The vehicle solution was tested as a control. […] Immediately before treatment, the 10% FCS BME was removed from the cells and replaced with the […] of the treatment medium. The cultured cells (normal primary cultures of rat brain astrocytes or C6 glioma purchased from ATCC) were incubated with test compound for 4 days. The cells were fixed with 4% paraformaldehyde, stained with 0.1% Cresylecth violet stain, and quantitated. The screening data was collected as four wells for each dose per compound (screening) or concentration (dose response curve). Also, the average growth of 8 wells with no treatment was used as a negative control for each plate (100% growth). The cells for dose response curves were grown in the same media and were handled in a similar manner as in the screening assays.
(§4) Data Analysis. The cytotoxic character of each compound was reported as the percent survival, calculated as the average A560 for treated cells divided by A560 of untreated (100% control) cells, and expressed as a percentage. Values less than 100% indicate a cytostatic or cytotoxic effect. Dose response curves and EC50 values were attained via plots of percent survival vs. concentration.

Data set [2] concerns C6 rat glioma cells. As to the kind of experiment: Screening and dose response assay (percent survival, 4 days, cresyl violet) on C6 glioma. In kind it is cell-based.
From the text: as §1, §2, §3, §4

On to `COc1cc2c(c(OC)c1)C(Cc1ccc(-c3ccccc3OC)cc1)NCC2` (single isomer, unassigned) [12a], for which the EC50 in data set [1] (listed as drawing 11, read-out: EC50 μM Astrocyte) amounted to 15.4 µM; in data set [2] (Table 1, listed as drawing 11, read-out: EC50 μM C6), 5.4 µM; in data set [2] (text b70, rat C6 glioma cell lines, listed as (−) 12a, read-out: antiglioma activity on rat C6 glioma cell lines), 5.39 µM.
Regarding `COc1cc2c(c(OC)c1)C(Cc1ccc(-c3ccccc3OC)cc1)NCC2` (single isomer, unassigned) [13a], the EC50 in data set [1] (Rattus norvegicus, Astrocyte) was 13.3 µM; in data set [2] (Table 1, listed as drawing 12, read-out: EC50 μM C6), 0.3 µM; in data set [2] (text b70, rat C6 glioma cell lines, listed as (+) 13a, read-out: antiglioma activity on rat C6 glioma cell lines) it was 0.26 µM. In addition, the “fold more potent than (−) 12a on rat C6 glioma cell lines” value in data set [2] (ratio of the C6 values of (−) 12a and (+) 13a) is around 21 fold.
The melting point is the temperature, or range, at which the solid turns liquid. With `COc1cc2c(c(OC)c1)C(Cc1ccc(-c3ccccc3OC)cc1)NCC2.Cl` (stereo not drawn) [9a, 6,8-Dimethoxy-1-(2′-methoxybiphenyl-4-ylmethyl)-1,2,3,4-tetrahydroisoquinoline hydrochloride], the melting point fell in the range of 140 to 142 °C. Besides, the EC50 in data set [1] (Rattus norvegicus, Astrocyte) was 10.2 µM. In addition, the EC50 in data set [1] (hydrochloride, read-out: EC50 μM Astrocyte) is 8.52 µM.
For `COc1cc2c(c(OC)c1)C(Cc1ccc(-c3cnccc3OC)cc1)NCC2` (stereo not drawn) [9b, 6,8-Dimethoxy-1-[4-(4-methoxypyridin-3-yl)benzyl]-1,2,3,4-tetrahydroisoquinoline dihydrochloride], the EC50 was 13.7 µM in data set [1] (Rattus norvegicus, Astrocyte) and 0.08 µM in data set [2] (Rattus norvegicus, Glioma cell, Table 1, read-out: EC50 μM C6).
